ChEMBL document CHEMBL1201862, “PubChem BioAssay data set” (2004)
Active and inactive are the calls of the source.

Assays:
[1] = molecular target: Luciferin 4-monooxygenase (Photinus pyralis, UniProt P08659); assay: Counter Screen for Luciferase-based Assay Positives. [Related pubchem assays: 620, 618, 411 ]
[2] = tested on: HEK293; assay: inhibitors of LMP1-driven NF-kB reporter, dose response, cell-based, HEK293, luciferase, cherry-pick (AID 588343); format: functional; settings: Homo sapiens
[3] = cytotoxicity toward DRD oncogenic fibroblasts, dose response, cell-based, non-viral oncogenic, luminescence (AID 1934); format: functional; settings: Homo sapiens
[4] = tested on: BJ; assay: cells; format: functional, cell-based; settings: Homo sapiens
[5] = tested on: BJ; assay: cytotoxicity toward BJ-TERT-LT-ST fibroblasts, dose response, cell-based, RAS-independent, luminescence (AID 1935); format: functional; settings: Homo sapiens;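 further: BJ fibroblasts immortalized with TERT plus LT and ST oncogenes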
[6] = cells; format: functional, cell-based
[7] = molecular target: T1, Nuclear receptor subfamily 0 group B member 1 (Homo sapiens, UniProt P51843); format: functional, cell-based;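 further: HEK293T cells transfected with SF-1 and DAX-1 plus StAR promoter luciferase reporter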
T1 sequence (P51843 whole entry): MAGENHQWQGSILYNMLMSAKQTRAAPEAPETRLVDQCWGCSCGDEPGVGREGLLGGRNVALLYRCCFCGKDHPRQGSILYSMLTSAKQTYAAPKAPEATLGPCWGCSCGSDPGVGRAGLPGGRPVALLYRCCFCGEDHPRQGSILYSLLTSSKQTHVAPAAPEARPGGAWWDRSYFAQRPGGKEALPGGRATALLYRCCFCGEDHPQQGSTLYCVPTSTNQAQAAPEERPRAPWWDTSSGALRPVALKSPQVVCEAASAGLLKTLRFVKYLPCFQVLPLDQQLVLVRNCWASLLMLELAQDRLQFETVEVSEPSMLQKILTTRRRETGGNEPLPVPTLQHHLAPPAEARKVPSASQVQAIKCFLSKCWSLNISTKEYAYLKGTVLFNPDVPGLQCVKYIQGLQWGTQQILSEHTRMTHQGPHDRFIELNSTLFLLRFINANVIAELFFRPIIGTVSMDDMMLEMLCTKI

[8] = tested on: HT-1080; assay: cytotoxicity in HT1080 fibrosarcoma cells, cell-based, fluorescence readout (AID 620); format: functional; settings: Homo sapiens
[9] = tested on: BJ; assay: cytotoxicity toward BJ-TERT fibroblasts, dose response, cell-based, RAS-independent, luminescence (AID 1933); format: functional; settings: Homo sapiens
[10] = tested on: Vero; assay: cells; format: functional, cell-based; settings: Chlorocebus sabaeus
[11] = tested on: Vero; assay: cells; format: functional; settings: Chlorocebus sabaeus
[12] = molecular target: T2, Sphingosine 1-phosphate receptor 4 (Homo sapiens, UniProt O95977); assay: Fluorescence dose response cell-based high throughput screening assay for antagonists of the Sphingosine 1-Phosphate Receptor 4 (S1P4). [Related pubchem assays: 1524 (Confirmation in triplicates.), 1510 (Primary screen.)]; format: functional
T2 sequence (O95977 whole entry): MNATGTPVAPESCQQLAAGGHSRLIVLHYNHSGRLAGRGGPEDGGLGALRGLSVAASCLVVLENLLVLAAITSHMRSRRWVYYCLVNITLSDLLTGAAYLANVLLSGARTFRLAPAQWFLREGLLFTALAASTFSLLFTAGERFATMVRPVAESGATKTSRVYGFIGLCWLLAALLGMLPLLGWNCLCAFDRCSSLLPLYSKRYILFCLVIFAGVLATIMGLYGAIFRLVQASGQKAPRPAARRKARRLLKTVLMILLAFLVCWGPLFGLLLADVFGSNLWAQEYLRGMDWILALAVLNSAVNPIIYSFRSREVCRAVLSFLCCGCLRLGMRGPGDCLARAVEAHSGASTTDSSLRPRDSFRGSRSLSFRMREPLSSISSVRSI

[13] = molecular target: Sphingosine 1-phosphate receptor 1 (Homo sapiens, UniProt P21453); format: functional;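 further: Tango beta-arrestin reporter U2OS cells stimulated with S1P near its EC80; inhibitor potency meaning antagonism of receptor activation by the natural agonist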
[14] = molecular target: T3, Estrogen receptor (Homo sapiens, UniProt P03372);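 further: potency for inhibiting coactivator peptide recruitment to the receptor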
T3 sequence (P03372 whole entry): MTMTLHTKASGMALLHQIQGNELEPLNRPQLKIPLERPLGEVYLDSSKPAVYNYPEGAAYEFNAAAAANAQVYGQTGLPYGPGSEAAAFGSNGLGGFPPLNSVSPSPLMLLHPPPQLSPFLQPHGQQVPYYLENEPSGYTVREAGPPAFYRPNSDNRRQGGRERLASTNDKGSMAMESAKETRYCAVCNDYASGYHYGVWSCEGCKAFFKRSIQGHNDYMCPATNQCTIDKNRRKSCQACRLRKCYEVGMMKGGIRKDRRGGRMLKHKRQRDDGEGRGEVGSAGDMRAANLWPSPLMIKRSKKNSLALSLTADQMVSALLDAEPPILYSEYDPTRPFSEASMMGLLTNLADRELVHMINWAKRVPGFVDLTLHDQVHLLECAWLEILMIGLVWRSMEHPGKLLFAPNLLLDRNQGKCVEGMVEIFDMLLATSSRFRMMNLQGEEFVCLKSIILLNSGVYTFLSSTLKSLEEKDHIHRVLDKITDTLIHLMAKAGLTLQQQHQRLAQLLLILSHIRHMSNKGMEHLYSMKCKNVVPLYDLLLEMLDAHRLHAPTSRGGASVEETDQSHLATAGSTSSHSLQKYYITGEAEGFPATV

[15] = molecular target: T4, Corticotropin-releasing factor receptor 2/Corticotropin-releasing factor-binding protein (Homo sapiens, UniProt P24387+Q13324); assay: activators of CRF receptor 2 with binding protein – uHTS hits, confirmation (AID 602473); format: functional; settings: read-out: EC50_Mean
T4 sequence (Q13324 whole entry): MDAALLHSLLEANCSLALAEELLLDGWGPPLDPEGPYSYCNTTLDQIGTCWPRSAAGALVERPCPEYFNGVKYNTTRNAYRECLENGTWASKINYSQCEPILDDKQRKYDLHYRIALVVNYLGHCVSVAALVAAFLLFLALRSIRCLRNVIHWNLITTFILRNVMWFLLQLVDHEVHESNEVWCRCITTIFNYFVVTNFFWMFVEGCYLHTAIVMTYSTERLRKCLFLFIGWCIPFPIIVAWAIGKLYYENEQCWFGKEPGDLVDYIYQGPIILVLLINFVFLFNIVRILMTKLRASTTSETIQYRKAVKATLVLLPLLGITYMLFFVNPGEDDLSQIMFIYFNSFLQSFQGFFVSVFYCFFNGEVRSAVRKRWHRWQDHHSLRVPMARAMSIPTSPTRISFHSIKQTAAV
T4 sequence (P24387 whole entry): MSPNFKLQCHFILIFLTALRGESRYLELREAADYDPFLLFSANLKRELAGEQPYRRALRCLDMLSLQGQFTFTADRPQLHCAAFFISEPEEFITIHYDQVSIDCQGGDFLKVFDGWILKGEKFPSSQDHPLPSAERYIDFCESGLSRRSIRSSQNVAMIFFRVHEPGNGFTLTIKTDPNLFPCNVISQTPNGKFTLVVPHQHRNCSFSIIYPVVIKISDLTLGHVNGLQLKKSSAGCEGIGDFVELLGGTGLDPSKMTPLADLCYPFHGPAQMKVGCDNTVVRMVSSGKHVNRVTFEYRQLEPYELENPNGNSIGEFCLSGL

[16] = molecular target: T5, E3 ubiquitin-protein ligase XIAP (Homo sapiens, UniProt P98170); assay: Counter Screen using XIAP-Bir3 for Chemical Antagonists of Bir1/2 domains of IAP-family anti-apoptotic proteins. [Related pubchem assays (depositor defined):AID1018, AID1449, AID1514, AID1638, AID1749, AID1750, AID488957, AID488963]
[17] = molecular target: T4, Corticotropin-releasing factor receptor 2/Corticotropin-releasing factor-binding protein; assay: Dose Response confirmation of uHTS hits for small molecule antagonists of the CRF-binding protein and CRF-R2 receptor complex.; format: functional; settings: read-out: IC50_Mean
[18] = molecular target: T5, E3 ubiquitin-protein ligase XIAP; assay: XIAP antagonists, biochemical, IAP family, fluorescence polarization (AID 1018); format: functional
[19] = molecular target: Lytic switch protein BZLF1 (Epstein-Barr virus (strain B95-8) (HHV-4) (Human herpesvirus 4), UniProt P03206); assay: EBV ZTA inhibitors, dose response, counter-screen for EBNA-1 inhibitor project, biochemical, fluorescence polarization, Epstein-Barr virus, 1536-well (AID 2377); parameters: species or system human gammaherpesvirus 4;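 further: fluorescence polarization of Cy5-labelled ZRE DNA probe bound by purified Zta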
[20] = molecular target: Epstein-Barr nuclear antigen 1 (Epstein-Barr virus (strain B95-8) (HHV-4) (Human herpesvirus 4), UniProt P03211); assay: EBNA-1 inhibitors, dose response, biochemical, fluorescence polarization, 1536-well (AID 2381); parameters: species or system human gammaherpesvirus 4;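 further: fluorescence polarization of a Cy5 DNA probe bound by EBNA-1 protein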
Sequence of Epstein-Barr nuclear antigen 1 (P03211 whole entry): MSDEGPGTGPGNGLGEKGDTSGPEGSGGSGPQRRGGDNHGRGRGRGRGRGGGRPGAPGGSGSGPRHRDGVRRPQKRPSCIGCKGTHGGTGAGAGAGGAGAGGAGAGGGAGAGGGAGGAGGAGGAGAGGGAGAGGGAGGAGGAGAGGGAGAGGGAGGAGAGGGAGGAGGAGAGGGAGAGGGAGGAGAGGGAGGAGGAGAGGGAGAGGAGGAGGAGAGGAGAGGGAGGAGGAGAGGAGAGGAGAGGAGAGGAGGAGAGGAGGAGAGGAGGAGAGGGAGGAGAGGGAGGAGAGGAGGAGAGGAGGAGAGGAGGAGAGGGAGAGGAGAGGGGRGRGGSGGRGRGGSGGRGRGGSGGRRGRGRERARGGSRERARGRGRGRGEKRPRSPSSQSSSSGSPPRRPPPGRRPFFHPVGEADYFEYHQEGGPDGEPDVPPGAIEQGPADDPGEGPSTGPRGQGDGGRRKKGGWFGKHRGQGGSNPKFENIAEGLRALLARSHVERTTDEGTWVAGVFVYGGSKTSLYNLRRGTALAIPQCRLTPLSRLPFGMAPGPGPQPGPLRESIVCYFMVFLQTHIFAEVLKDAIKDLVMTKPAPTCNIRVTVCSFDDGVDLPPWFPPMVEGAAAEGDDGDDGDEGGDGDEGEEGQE

Sequence of Luciferin 4-monooxygenase (P08659 whole entry): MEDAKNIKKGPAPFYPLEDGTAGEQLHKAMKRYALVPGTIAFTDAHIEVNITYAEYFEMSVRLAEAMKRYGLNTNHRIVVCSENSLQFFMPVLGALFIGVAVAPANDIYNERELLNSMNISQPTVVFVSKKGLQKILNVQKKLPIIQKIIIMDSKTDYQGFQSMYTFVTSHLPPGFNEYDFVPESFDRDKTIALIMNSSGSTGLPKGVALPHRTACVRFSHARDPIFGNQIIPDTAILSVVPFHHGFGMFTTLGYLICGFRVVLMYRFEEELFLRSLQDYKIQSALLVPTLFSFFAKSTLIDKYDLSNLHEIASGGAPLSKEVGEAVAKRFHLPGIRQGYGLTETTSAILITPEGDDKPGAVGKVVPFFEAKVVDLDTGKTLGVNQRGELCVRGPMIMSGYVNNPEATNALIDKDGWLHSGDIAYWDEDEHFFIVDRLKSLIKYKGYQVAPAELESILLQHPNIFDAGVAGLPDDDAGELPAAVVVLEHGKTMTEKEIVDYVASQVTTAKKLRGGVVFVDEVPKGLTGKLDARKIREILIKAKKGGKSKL
T5 sequence (P98170 whole entry): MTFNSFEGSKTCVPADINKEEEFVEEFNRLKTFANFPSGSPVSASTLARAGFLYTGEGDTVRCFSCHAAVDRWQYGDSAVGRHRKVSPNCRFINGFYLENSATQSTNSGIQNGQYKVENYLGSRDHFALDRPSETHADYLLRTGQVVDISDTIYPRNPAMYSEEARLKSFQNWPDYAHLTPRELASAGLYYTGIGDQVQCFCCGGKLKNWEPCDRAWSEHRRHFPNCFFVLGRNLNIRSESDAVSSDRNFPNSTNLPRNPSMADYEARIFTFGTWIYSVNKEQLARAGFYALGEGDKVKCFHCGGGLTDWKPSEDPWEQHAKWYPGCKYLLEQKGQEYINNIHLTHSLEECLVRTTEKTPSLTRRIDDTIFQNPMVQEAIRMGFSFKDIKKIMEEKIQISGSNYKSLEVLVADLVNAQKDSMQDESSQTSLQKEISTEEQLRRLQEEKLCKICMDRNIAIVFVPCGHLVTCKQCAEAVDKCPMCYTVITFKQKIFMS
Sequence of Sphingosine 1-phosphate receptor 1 (P21453 whole entry): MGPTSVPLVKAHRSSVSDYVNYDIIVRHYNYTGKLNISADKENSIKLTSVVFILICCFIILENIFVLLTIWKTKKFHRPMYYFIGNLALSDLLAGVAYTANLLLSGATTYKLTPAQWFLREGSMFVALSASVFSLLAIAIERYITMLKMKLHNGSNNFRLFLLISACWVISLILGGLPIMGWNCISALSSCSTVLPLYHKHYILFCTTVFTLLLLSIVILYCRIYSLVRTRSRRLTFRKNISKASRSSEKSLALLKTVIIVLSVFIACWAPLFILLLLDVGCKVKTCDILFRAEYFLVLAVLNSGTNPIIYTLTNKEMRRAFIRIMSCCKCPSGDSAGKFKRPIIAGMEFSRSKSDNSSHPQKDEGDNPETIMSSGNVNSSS
Sequence of Lytic switch protein BZLF1 (P03206 whole entry): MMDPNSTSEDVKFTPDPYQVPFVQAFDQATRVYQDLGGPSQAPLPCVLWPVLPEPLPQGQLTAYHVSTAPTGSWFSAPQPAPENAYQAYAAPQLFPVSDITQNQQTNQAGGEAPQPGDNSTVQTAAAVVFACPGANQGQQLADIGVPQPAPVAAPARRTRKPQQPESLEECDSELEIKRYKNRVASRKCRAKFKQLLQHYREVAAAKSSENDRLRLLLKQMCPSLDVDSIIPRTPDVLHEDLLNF

Question: With `c1ccc(C2=NN=C(NC3CC3)SC2)cc1` as the compound, how does the EC50 [1] read?
Answer: 1.24 µM (active)

Question: And the AC50 [2]?
Answer: 2.58 µM (active)

Question: And the EC50 [3]?
Answer: 10.5 µM (active)

Question: What about the EC50 [4] of the same compound?
Answer: 12.4 µM (inconclusive)

Question: What about the EC50 [5] of the same compound?
Answer: > 150 µM (inconclusive)

Question: And the IC50 [6]?
Answer: > 67.6 µM (inactive)

Question: What about the IC50 [7] of the same compound?
Answer: > 67.6 µM (inactive)

Question: And the EC50 [8]?
Answer: > 50 µM (not active)

Question: And the EC50 [9]?
Answer: 13.1 µM (active)

Question: Which results are given for `O=C(/C=C/c1ccccc1)CC(O)(c1ccccc1)C(F)(F)F` (configuration not stated)?
Answer: IC50 [10]: > 25 µM (active); CC50 [11]: 13.6 µM (active); IC50 [12]: 1.97 µM (active); IC50 [13]: 25.9 µM (not active)

Question: For `Cc1nnc(NC(=O)CSc2nc3c(c(=O)n2CCc2ccccc2)SC(C)C3)s1` (configuration not stated), which IC50 [14] is on record?
Answer: 17.5 µM (active)

Question: Which EC50 [15] does the source give for `COc1ccc(Cl)cc1NC(=O)CNc1ccccc1F` here?
Answer: > 53 µM (inactive)

Question: What about the IC50 [16] of the same compound?
Answer: > 100 µM (inactive)

Question: What about the IC50 [17] of the same compound?
Answer: > 47.1 µM (inactive)

Question: What about the IC50 [18] of the same compound?
Answer: > 100 µM (not active)

Question: Which results are given for `Fc1ccccc1OCCSc1nnnn1-c1ccccc1`?
Answer: EC50 [1]: 3.32 µM (active); EC50 [8]: > 50 µM (not active)

Question: What does the source list for `COc1ccc(C(=O)CSc2nnc(NC(=O)C3CC(=O)N(c4cccc(OC)c4)C3)s2)cc1` (configuration not stated)?
Answer: IC50 [19]: > 111 µM (not active); IC50 [20]: 5.9 µM (active)
